# In PMC7335011 (The Journal of General Physiology, 2020):
# Biological target: MthK (Methanothermobacter thermautotrophicus, UniProt O27564)
# Format: biochemical
row,Compound,IC50 [µM]
1,NCCCCNCCCN [SPD^3+],860 ± 20
2,NCCCNCCCCNCCCN [SPM^4+],77 ± 6
